Reference: patent US20240002429A1, “PRODRUG OF 5a-HYDROXY-6ß-[2-(1H-IMIDAZOL-4-YL)ETHYLAMINO]CHOLESTAN-3ß-OL AND PHARMACEUTICAL COMPOSITIONS COMPRISING SAME FOR USE IN THE TREATMENT OF CANCER” (priority 2020, published 2024)
pIC50: −log10 of the molar value.

Tests used:
[1] = tested on: BT-474 human mammary tumor cells; test: Cytotoxicity on BT-474 cells, trypan blue; format: cell-based; conditions: BT-474, trypan blue, 48 h
Protocol: (§1) The cellular viability tests were also carried out on BT-474 human mammary tumor cells (characterized as being positive triples HER2+, ER+, PR+). The BT-474 cells are in a cell culture medium identical to the preceding example and are seeded in 24-well plates at 70 000 cells per well, for determination of cellular viability using trypan blue, or in 96-well plates at 13 000 cells per well for determination of cellular viability using the MTT or LDH assay. After 96 hours (h) of culture in normal conditions, i.e. in an incubator at a temperature of 37° C. at 5% CO2, the BT-474 cells are treated for 48 h with DX101, DX107, and DX113 at 100 nM, 1 μM, 2.5 μM and 10 μM. A control is also carried out using the protocol described above but without treatment with the molecules DX101, DX107, DX113, DX117, DX119, DX121 or DX131.
(§2) After trypsin digestion for 10 minutes at 37° C., cell survival was quantified, also by a trypan blue assay with automatic counting with the Biorad TC20 equipment (TC20™ Automated Cell Counter). The trypan blue assay is based on the cell membrane integrity, which is broken in the dead cells. Trypan blue stains the dead cells blue. The Biorad TC20 cell counter counts the proportion of blue cells and non-blue cells, relative to the cell percentages. The percentage viability is then determined in each well relative to the untreated cells and the IC50 is determined as explained in the preceding example. The percentage viability of the BT-474 cells was determined using the MTT and LDH assay, carried out as described in the preceding example.

[2] = tested on: BT-474 human mammary tumor cells; test: Cytotoxicity on BT-474 cells, LDH; format: cell-based; conditions: for Mean LogIC50 (±SEM): log of IC50 in μM; for pIC50: Homo sapiens
Protocol: (§3) For the second method, the percentage viability is determined using assay of the activity of the enzyme LDH (lactate dehydrogenase) in the cellular supernatants using the kit non radioactive cytotoxicity assay kit (Promega). LDH is an enzyme released in the supernatant of dead cells. The higher the LDH activity in the supernatant, the greater is the cell death. In this enzyme test, the LDH released converts a violet tetrazolium salt to formazan, of red color, absorbing at 490 nm. The intensity of the red color is proportional to the number of dead cells. After 48 h of treatment, the supernatants are transferred to a new 96-well plate and are incubated for 30 minutes in the presence of the substrate mix at room temperature. The reaction is stopped using the stop buffer and the absorbance is determined at 490 nm. The percentage cell death is determined here using a control 100% of maximum activity of LDH (carried out with untreated cells incubated in the presence of the lysis solution for 45 minutes at 37° C. just before adding the substrate mix), and the cellular viability in each well is then deduced from this percentage. IC50 is then determined as explained in the preceding paragraph.
as §1, §2

4T1 cells [3] = test: Cytotoxicity on 4T1 cells, MTT; format: cell-based, murine; conditions: Mus musculus; for IC50: read-out: Mean LogIC50 (±SEM) (converted)
Protocol: (§4) The cellular viability tests were carried out on murine mammary tumor 4T1 cells characterized as negative triples (HER2−, ER−, PR−).
(§5) For this experiment, a cell culture medium was prepared. The culture medium consists of Dulbecco's Modified Eagle Medium (DMEM, marketed by Westburg under the reference LO BE12-604F), comprising 4.5 g/L glucose with L-glutamine, to which 10% of fetal calf serum (FCS) and 50 U/mL of penicillin/streptomycin are added. The 4T1 cells are introduced into this culture medium.
(§6) 96-well plates were seeded with 2000 4T1 cells per well. After 72 hours (h) of culture in normal conditions, i.e. in an incubator at a temperature of 37° C. at 5% CO2, the 4T1 cells are treated for 48 h with DX101, DX107, DX113, DX117, DX119, DX121 or DX131 at 100 nM, 1 μM, 2.5 μM and 10 μM. A control condition (CTL) is also carried out in parallel using the protocol described above but without treatment with the molecules DX101, DX107, DX113, DX117, DX119, DX121, DX131 or DX133.
(§7) Cellular viability is measured by three different methods. For the first method, MTT labeling is carried out at 48 hours. This test is based on the use of the tetrazolium salt MTT (3-(4,5-dimethylthiazol-2-yl)-2,5-diphenyltetrazolium bromide). The tetrazolium is reduced by mitochondrial succinate dehydrogenase of active living cells, to formazan, a precipitate of a violet color. The quantity of precipitate formed is proportional to the quantity of living cells but also to the metabolic activity of each cell. […] After 48 hours, the medium is aspirated, and the cells are incubated with MTT (0.5 mg/ml in culture medium) for about 3 hours. The MTT solution is aspirated and the violet crystals are dissolved in dimethylsulfoxide (DMSO). The OD (optical density) is measured at 550 nm. The percentage viability is then determined in each well relative to the CTL and the IC50 (concentration for which there are still 50% of living cells) is determined for each molecule with Prism software using the nonlinear regression straight line (log(inhibitor) vs. Response).

[4] = tested on: BT-474 human mammary tumor cells; test: Cytotoxicity on BT-474 cells, MTT; format: cell-based; conditions: for Mean LogIC50 (±SEM): log of IC50 in μM; for pIC50: Homo sapiens
Protocol: as §7, §1, §2

4T1 cells [5] = test: Cytotoxicity on 4T1 cells, LDH; format: cell-based, murine; conditions: Mus musculus; for IC50: read-out: Mean LogIC50 (±SEM) (converted)
Protocol: as §4, §5, §6, §3

4T1 cells [6] = test: Cytotoxicity on 4T1 cells, CellTox Green Cytotoxicity Assay; format: cell-based, murine; conditions: Mus musculus; for IC50: read-out: Mean LogIC50 (±SEM) (converted)
Protocol: as §4, §5, §6
For the third method, the percentage viability is determined using the kit CellTox Green Cytotoxicity Assay (Promega). This assay measures cell death via a change in membrane integrity. […] As a result, the higher the fluorescence in the wells, the greater is the cell death. After 48 h of treatment, the cells are incubated for a minimum of 15 minutes in the presence of the Celltox green reagent at room temperature and the fluorescence is read at […]. The percentage cell death is determined using the control 100% of cell death (carried out for untreated cells incubated in the presence of the lysis solution for 30 minutes at 37° C. before adding the Celltox green reagent), and the cellular viability in each well is then deduced from this percentage. IC50 is then determined as explained above.

[7] = Pharmacokinetic study of DX117 (LC/MS in plasma); format: in vivo; conditions: rat, 50 mg/kg, administered compound assayed
Description: (§8) The following study is a determination by LC/MS in plasma of the various molecules over 3 days (11 measurement points at the end). The graphs are always presented in comparison with DX101, which is the reference. […]

[8] = Pharmacokinetic study of DX121 (LC/MS in plasma); format: in vivo; conditions: rat, oral 50 mg/kg, administered compound assayed
Description: as §8

[9] = BT-474, LDH, 48 h, read-out: IC50
[10] = 4T1, MTT, 48 h, log of IC50 in μM
[11] = BT-474, MTT, 48 h, read-out: IC50
[12] = 4T1, LDH, 48 h, log of IC50 in μM
[13] = 4T1, Green Cytotoxicity Assay, 48 h, log of IC50 in μM
[14] = 4T1, Green Cytotoxicity Assay, 48 h, read-out: IC50

Compound	Mean LogIC50 (±SEM) ([2]; BT-474, LDH, 48 h)	pIC50 [2, 9]	IC50 (4T1 cells [3]; [10])	pIC50 (4T1 cells [3]; 4T1, MTT, 48 h, read-out: IC50)	Mean LogIC50 (±SEM) ([4]; BT-474, MTT, 48 h)	pIC50 [4, 11]	IC50 (4T1 cells [5]; [12])	pIC50 (4T1 cells [5]; 4T1, LDH, 48 h, read-out: IC50)	IC50 (4T1 cells [6]; [13])	pIC50 (4T1 cells [6]; [14])	further results
CCCCCC(=O)O[C@H]1CC[C@]2(C)[C@H]3CC[C@]4(C)[C@@H]([C@H](C)CCCC(C)C)CC[C@H]4[C@@H]3C[C@@H](NCCc3cnc[nH]3)[C@@]2(O)C1 [DX113, 5α-hydroxy-6β-[2-(1H-imidazol-4-yl)-ethylamino]-cholestan-3β-yl hexanoate]	1.38 ± 0.07	4.63	18.2 µM	4.74	1.33 ± 0.07	4.67	5.25 µM	5.28	11 µM	4.96	Mean LogIC50 (±SEM) ([1]; log of IC50 in μM): 1.09 ± 0.15; pIC50 ([1]; Homo sapiens): 4.91
CC(C)CCCC(C)[C@H]1CCC2C3C[C@@H](NCCc4c[nH]cn4)[C@@]4(O)C[C@@H](OC(=O)NCCc5c[nH]cn5)CC[C@]4(C)C3CC[C@@]21C (stereo partly drawn) [DX117, 5α-hydroxy-6β-[2-(1H-imidazol-4-yl)ethylamino]-cholestan-3β-yl-(2-(1H-imidazol-4-yl)ethyl)carbamate]	0.72 ± 0.18	5.28	11 µM	4.96	0.79 ± 0.06	5.21	8.32 µM	5.08	9.55 µM	5.02	Concentration max [7]: 76.67 nM; Area under curve ([7]; 0-72 h): 2123
CCCCOC(=O)O[C@H]1CC[C@]2(C)[C@H]3CC[C@]4(C)[C@@H]([C@H](C)CCCC(C)C)CC[C@H]4[C@@H]3C[C@@H](NCCc3c[nH]cn3)[C@@]2(O)C1 [DX119, 5α-hydroxy-6β-[2-(1H-imidazol-4-yl)ethylamino]cholestan-3β-yl butyl carbonate]	1.41 ± 0.01	4.59	9.33 µM	5.03	1.33 ± 0.06	4.84	3.09 µM	5.51	3.63 µM	5.44	
CCOC(=O)O[C@H]1CC[C@]2(C)[C@H]3CC[C@]4(C)[C@@H]([C@H](C)CCCC(C)C)CC[C@H]4[C@@H]3C[C@@H](NCCc3c[nH]cn3)[C@@]2(O)C1 [DX121, 5α-hydroxy-6β-[2-(1H-imidazol-4-yl)ethylamino]cholestan-3β-yl ethyl carbonate]	1.47 ± 0.40	4.93	11 µM	4.96	1.05 ± 0.17	4.95	4.68 µM	5.33	6.61 µM	5.18	Concentration max [8]: 96.33 nM; Area under curve ([8]; 0-72 h): 1000
CCN(CC)C(=O)O[C@H]1CC[C@]2(C)C3CC[C@@]4(C)C(CC[C@@H]4C(C)CCCC(C)C)C3C[C@@H](NCCc3c[nH]cn3)[C@@]2(O)C1 (stereo partly drawn) [DX131, 5α-hydroxy-6β-[2-(1H-imidazol-4-yl)ethylamino]cholestan-3β-yl-diethyl carbamate]	1.45 ± 0.08				1.08 ± 0.08						pIC50 ([2]; BT-474, 48 h): 4.55; pIC50 (4T1 cells [3]; 4T1, 48 h): 4.59; IC50 (4T1 cells [3]; 4T1, 48 h): 25.7 µM; pIC50 ([4]; BT-474, 48 h): 4.92; pIC50 (4T1 cells [5]; 4T1, 48 h): 5.17; IC50 (4T1 cells [5]; 4T1, 48 h): 6.76 µM; pIC50 (4T1 cells [6]; 4T1, 48 h): 5.74; IC50 (4T1 cells [6]; 4T1, 48 h): 1.7 µM
CCC(=O)NC(Cc1ccc(O)cc1)C(=O)O[C@H]1CC[C@]2(C)C3CC[C@@]4(C)C(CC[C@@H]4C(C)CCCC(C)C)C3C[C@@H](NCCc3c[nH]cn3)[C@@]2(O)C1 (stereo partly drawn) [DX133, 5α-hydroxy-6β-[2-(1H-imidazol-4-yl)ethylamino]cholestan-3β-yl propionyltyrosine]			12.3 µM	4.91			4.17 µM	5.38	3.55 µM	5.45	
